Assay results reported in the supplement of paper PMC10307832.

Key:
Assay in all cases: relative viability (nuclei count vs DMSO), 5 days (fraction); higher = more cells survive
[1] = compound: COc1cc2nc(N3CCCN(C)CC3)nc(NC3CCN(Cc4ccccc4)CC3)c2cc1OC
Method in brief: (§1)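 Viability was defined as treated-well nuclei divided by vehicle-well nuclei, with the median taken over replicate plates. Cells from lung cancer lines sat overnight at 37 °C in 1536-well plates, received five √10-spaced library-drug doses by pinning on vehicle-anchored plates, and grew 5 days without medium change before one-step fixation, permeabilisation and Hoechst staining, 4× imaging and MetaXpress nuclear counts. Only plates with control CV under 25% and at least one doubling were kept.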

AZD6482 = compound: Cc1cc([C@@H](C)Nc2ccccc2C(=O)O)c2nc(N3CCOCC3)cc(=O)n2c1 [AZD6482]
Method in brief: as §1

[2] = compound: COc1cc2nc(N3CCCN(C)CC3)nc(NC3CCN(Cc4ccccc4)CC3)c2cc1OC + Cc1nc(NC(=O)N2CCC[C@H]2C(N)=O)sc1-c1ccnc(C(C)(C)C(F)(F)F)c1 [Alpelisib] (partner 2 µM)
Method in brief: (§2)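 Each reported value is a median over duplicate plates. It expresses relative viability: treated-well nuclei count divided by vehicle-well nuclei count. Lung cancer cell lines in 1536-well plates were dosed by pin tool a day after seeding, alone with one drug or with a fixed anchor-drug dose plus five library-drug doses (not always all listed) in √10 steps, and nuclei were counted after 5 days.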

AZD6482 + Pemetrexed = compound: Cc1cc([C@@H](C)Nc2ccccc2C(=O)O)c2nc(N3CCOCC3)cc(=O)n2c1 [AZD6482] + Nc1nc2[nH]cc(CCc3ccc(C(=O)N[C@@H](CCC(=O)O)C(=O)O)cc3)c2c(=O)[nH]1 [Pemetrexed] (partner 0.2 µM)
Method in brief: as §2

Row | Cell Line | relative viability ([1]; 0.2 µM) | relative viability ([1]; 0.6325 µM) | relative viability ([1]; 2 µM) | relative viability ([1]; 6.325 µM) | relative viability (AZD6482; 0.08 µM) | relative viability (AZD6482; 0.253 µM) | relative viability (AZD6482; 0.8 µM) | relative viability (AZD6482; 2.53 µM) | relative viability (AZD6482; 8 µM) | relative viability ([2]; first compound 0.2 µM) | relative viability ([2]; first compound 0.6325 µM) | relative viability ([2]; first compound 2 µM) | relative viability ([2]; first compound 6.325 µM) | relative viability (AZD6482 + Pemetrexed; first compound 0.08 µM) | relative viability (AZD6482 + Pemetrexed; first compound 0.253 µM) | relative viability (AZD6482 + Pemetrexed; first compound 0.8 µM) | relative viability (AZD6482 + Pemetrexed; first compound 2.53 µM) | relative viability (AZD6482 + Pemetrexed; first compound 8 µM)
1 | 201T | 0.976 | 1.05 | 1.01 | 0.983 | 0.977 | 0.97 | 0.969 | 0.771 | 0.958 | 1.01 | 0.998 | 1.05 | 1.01 | 0.31 | 0.295 | 0.27 | 0.314 | 0.342
2 | A549 | 1.02 | 1.01 | 0.992 | 0.935 | 0.935 | 0.965 | 0.947 | 0.566 | 0.769 | 0.694 | 0.8 | 0.761 | 0.722 |  |  |  |  | 
3 | A-427 | 0.922 | 1.06 | 1.01 | 0.882 | 0.965 | 0.884 | 1.02 | 0.651 | 0.974 | 1.12 | 0.98 | 0.997 | 1.08 | 0.92 | 0.967 | 0.963 | 0.686 | 0.995
4 | ABC-1 | 0.924 | 1.12 | 1 | 0.926 | 0.953 | 0.897 | 0.97 | 0.849 | 0.713 | 0.955 | 0.988 | 1.18 | 0.92 |  |  |  |  | 
5 | BEN | 1.03 | 1.06 | 1.19 | 1.04 | 0.889 | 0.791 | 1.05 | 0.803 | 0.853 | 1.07 | 1 | 1.13 | 1.06 | 0.766 | 0.589 | 0.829 | 0.512 | 0.703
6 | CAL-12T | 0.905 | 0.964 | 1.02 | 0.933 | 0.959 | 0.979 | 1.1 | 0.731 | 0.839 | 1.21 | 1.23 | 1.16 | 1.15 | 1.08 | 1.12 | 1.16 | 0.867 | 1.31
7 | COR-L23 | 0.942 | 1.03 | 1.06 | 1.03 | 0.808 | 1.02 | 1.08 | 0.845 | 0.834 | 0.799 | 0.724 | 0.944 | 0.712 | 0.198 | 0.205 | 0.197 | 0.182 | 0.204
8 | COR-L 105 | 0.868 | 1.08 | 0.793 | 0.621 | 0.825 | 0.904 | 0.874 | 0.577 | 0.801 | 1.11 | 0.86 | 1.08 | 0.732 | 0.935 | 1.13 | 1.26 | 0.761 | 1.21
9 | Calu-6 | 0.968 | 0.942 | 1.09 | 0.913 | 0.951 | 0.938 | 0.992 | 0.824 | 0.875 | 0.884 | 0.926 | 1 | 0.976 |  |  |  |  | 
10 | ChaGo-K-1 | 0.944 | 0.985 | 1.03 | 0.94 | 1.07 | 0.839 | 1.05 | 0.91 | 0.983 |  |  |  |  | 0.259 | 0.262 | 0.271 | 0.262 | 0.258
11 | EBC-1 | 0.948 | 0.9 | 0.976 | 0.827 | 0.881 | 0.923 | 0.855 | 0.467 | 0.449 | 0.82 | 0.798 | 0.787 | 0.697 |  |  |  |  | 
12 | IA-LM | 0.941 | 0.865 | 1.08 | 0.862 | 0.979 | 0.99 | 1.03 |  | 0.842 | 0.688 | 0.823 | 1.02 | 1.01 |  |  |  |  | 
13 | NCI-H522 | 0.987 | 1.01 | 0.936 | 1.02 | 0.959 | 0.789 | 0.981 | 0.926 | 0.768 |  |  |  |  | 0.932 | 0.933 | 1.11 | 0.87 | 0.923
14 | NCI-H727 | 0.834 | 0.867 | 0.826 | 0.783 | 0.877 | 0.789 | 0.945 | 0.58 | 0.833 | 0.633 | 0.615 | 0.593 | 0.328 |  |  |  |  | 
15 | NCI-H1299 | 0.984 | 1.03 | 1.06 | 0.97 | 0.998 | 1.07 | 1.14 | 0.914 | 1.02 | 1.03 | 1.08 | 1.06 | 1.08 |  |  |  |  | 
16 | NCI-H1648 | 0.713 | 0.798 | 0.757 | 1.13 | 0.888 | 0.863 | 0.954 | 0.519 | 0.599 |  |  |  |  | 0.892 | 0.625 | 0.816 |  | 0.671
17 | NCI-H1650 | 0.863 | 1.03 | 0.924 | 0.835 | 0.839 | 0.854 | 0.778 | 0.719 | 0.862 |  |  |  |  | 0.332 | 0.295 | 0.372 | 0.287 | 0.361
18 | NCI-H1703 | 1.09 | 0.789 | 0.975 | 0.571 | 0.861 | 0.797 | 0.676 | 0.332 | 0.414 | 0.313 | 0.265 | 0.402 | 0.353 |  |  |  |  | 
19 | NCI-H2342 | 1.02 | 0.887 | 0.956 | 0.995 | 0.892 | 0.87 | 0.92 | 0.653 | 0.688 |  |  |  |  | 0.745 | 0.681 | 0.726 | 0.609 | 0.567
20 | SW 900 | 0.81 | 1.03 | 0.89 | 0.752 | 0.675 | 0.683 | 0.691 | 0.486 | 0.778 |  |  |  |  | 0.479 | 0.476 | 0.501 | 0.358 | 0.384
